Measured values taken from patent US12686704B2, “Procoagulant peptides and use thereof” (RAMBAM MED-TECH LTD., priority 2021, dated 2026).

Columns and labels:
rat = assay: Rat models of uncontrolled hemorrhage (spleen transection, liver laceration); type: in vivo; settings: for bleeding (blood loss): 150 μg/kg subcutaneous half an hour before surgery, I.V. 2 minutes following trauma, or topical, FIGS. 2A-2F; for bleeding (blood loss) / bleeding time: vs PBS control; for bleeding time: FIG. 2G
Procedure: FIGS. 2A-2I include vertical bar graphs showing the effect of modified heparanase procoagulant peptides of the invention using different rat bleeding models. Two rat models of uncontrolled hemorrhage were applied. The models include spleen transection (2A) and liver laceration (2B). Blood loss was recorded every 2 minutes for the first 10 minutes after injury and at 5-minutes intervals thereafter for a total of 30 minutes. Shed blood were collected by placing reweighed gauze below the organ targeted for injury. The gauze was changed and weighed at the blood-loss intervals. Peptides 16 and 16AC were injected subcutaneously (150 μg/kg) half an hour before surgery (2A-2B) or intravenously (I.V.) in the saphenous vein (150 μg/kg) 2 minutes following the trauma (2C, 2D, 2H, and 2I). The third route of administration was topical application (150 μg/kg) on the incision site (2E-2F). The peptides were dissolved in phosphate-buffered saline (PBS) and added at a rate of a drop every 5 seconds. Control group (‘C’) was administered (either subcutaneously, intravenously, or topically) with the vehicle phosphate buffered saline (PBS). […] Mann-Whitney U test was used. Results represent mean±SD. *p<0.01, **p<0.001. In addition to Peptide 16 and Peptide 16AC, Peptide 16C, and Peptide 16A were also analyzed and compared in (2H and 2I).
Two rat models of uncontrolled hemorrhage were applied as previously described (Morgan et al., 2015; JAMA Surg.). The models included spleen transection (FIG. 2A) and liver laceration (FIG. 2B). Briefly, blood loss was recorded every 2 minutes for the first 10 minutes after injury and at 5-minute intervals thereafter for a total of 30 minutes. Shed blood were collected by placing reweighed gauze below the organ targeted for injury. The gauze was changed and weighed at the blood-loss intervals. Peptides 16 and 16AC were injected subcutaneous (150 μg/kg) half an hour before surgery (FIGS. 2A-2B) or intra-venous (I.V.) in the saphenous vein (150 μg/kg) 2 minutes following the trauma (FIGS. 2C-2D). The third route of administration was topical application (150 μg/kg) on the incision site (FIGS. 2E-2F). The peptides, dissolved in phosphate-buffered saline (PBS), were added at a rate of a drop every 5 seconds. Control (C) group was injected or topical applied with the vehicle phosphate buffered saline (PBS).

[1] = test system: human umbilical vein endothelial cells (HUVEC); assay: HUVEC proliferation, XTT assay; type: cell-based; settings: 2.5 μg/ml and 5 μg/ml; 48 hour; FIG. 5A
Procedure: FIGS. 5A-5B include vertical bar graphs showing that heparanase procoagulant peptides induce human umbilical vein endothelial cells (HUVEC) proliferation. (5A) HUVEC cells were seeded in 96 wells plate (5,000 cells/well). Increasing concentration of peptides 16 and 16AC (2.5 μg/ml, and 5 μg/ml) were added to the cells. […] (5B) Similar experiment as described in 5A, but 10 ng/ml of peptide 7 (TFPI-2 derived inhibitory peptide) was added to the cells for 1 hour prior to the addition of peptide 16 (5 μg/ml) or 16AC (5 μg/ml).
Briefly, HUVEC cells were seeded in 96 wells plate (5,000 cells/well). Increasing concentration of peptides 16 and 16AC (2.5 μg/ml, and 5 μg/ml) were added to the cells.

ICR mice = assay: Immunostaining of wound skin sections of ICR mice; type: in vivo, mouse; settings: subcutaneous opposite to the wound every other day for a week; for expression of heparanase in micro-vessels: FIG. 10A; for expression of TF in micro-vessels: FIG. 10B; for expression of TFPI-1 in micro-vessels: FIG. 10C; for expression of TFPI-2 in micro-vessels: FIG. 10D
Procedure: FIGS. 10A-10D include micrographs of immunohistochemistry assays showing that heparanase procoagulant peptides increase the level of heparanase, TF, TFPI and TFPI-2. Full thickness incision was made in the back skin of ICR mice. Each group included 5 mice. From the day of surgery either peptide 16 or 16AC was injected subcutaneous opposite to the wound, every other day for a week. At the end of the experiment the mice were sacrificed and the wound skin section was analyzed by immunostaining. […] Images were visualized through ×50 magnitude, with 0.82 MDC objective lens, captured with a Nikon E995 digital camera (Nikon, Tokyo, Japan), and processed with Adobe Photoshop software (Adobe Systems, San Jose, CA, USA).
Briefly, full thickness incision was made in the back skin of ICR mice. Each group included 5 mice. From the day of surgery either peptide 16 or 16AC was injected subcutaneous opposite to the wound, every other day for a week. At the end of the experiment the mice were sacrificed and the wound skin section was analyzed by immunostaining.

[2] = test system: citrated pooled normal human blood; assay: Thromboelastography (TEG) of citrated pooled normal human blood; settings: for Angle / K / MA (maximal amplitude) / R (time to clot formation) / SP / thrombus strength (maximal amplitude, MA), in words / time to clot formation (R), in words: 5 μg/ml with calcium; for Angle / K / MA (maximal amplitude) / R (time to clot formation) / SP: blood left 4 hours at room temperature, representative TEG curve FIG. 1B; for thrombus strength (maximal amplitude, MA), in words / time to clot formation (R), in words: vs control
Procedure: FIGS. 1A-1C include vertical bar graphs and thromboelastography (TEG) curves, showing that peptide 16 and peptide 16AC increase coagulation. Peptide 16 and 16AC were studied in an assay of purified proteins that included lipidated TF (4 nM), factor VIIa (40 nM), factor X (1.4 μM) and assay buffer. Factor X activated form (Xa) level was studied using a chromogenic substrate (1 mM). […] Bovine factor Xa diluted in the assay buffer was used to generate a standard curve. Without addition of TF (two right columns), no factor Xa was generated. […] (1B) A citrated pooled normal human blood sample (n=3) was left for 4 hours at room temperature in order to expose TF in bloods cells. Following this period, the peptides 16 and 16AC were added (5 μg/ml) along with calcium. […] Representative TEG curves are shown. (1C) The study presented in FIG. 1B was repeated 3 times with different pooled plasma. […] Peptide 16 (non-modified); peptide 16 comprising a C-terminal amid group (16A); peptide 16 comprising an N-terminal acetyl group (16C); and peptide 16 comprising a C-terminal amid group and an N-terminal acetyl group (16AC). In 1B: for control—SP min=11.2; R min=12.8; K min=3.8, Angle deg=52.0; and MA mm=47.9, for Peptide 16—SP min=5.2; R min=6.4; K min=2.8, Angle deg=63.3; and MA mm=50.4, and for Peptide 16AC—SP min=4.7; R min=5.6; K min=2.5, Angle deg=63.1; and MA mm=53.8.
A citrated pooled normal human blood sample (n=3) was left for 4 hours at room temperature in order to expose TF in bloods cells. Following this period, the peptides 16 and 16AC were added (5 μg/ml) along with calcium. […] Representative images are shown (FIG. 1B). The study from B section was repeated 3 times with different pooled blood.

Row | expression of heparanase in micro-vessels (ICR mice) | Substance | bleeding (blood loss) (rat) | bleeding time (rat; 150 μg/kg) | cell proliferation [1] | expression of TF in micro-vessels (ICR mice) | expression of TFPI-1 in micro-vessels (ICR mice) | expression of TFPI-2 in micro-vessels (ICR mice) | Angle [2] [deg] | K [2] [min] | MA (maximal amplitude) [2] [mm] | R (time to clot formation) [2] [min] | SP [2] [min] | thrombus strength (maximal amplitude, MA), in words [2] | time to clot formation (R), in words [2] | effect in reducing the bleeding, comparison between peptides (rat; 150 μg/kg, FIGS. 2A-2I (16C and 16A: I.V., FIGS. 2H-2I)) | clot formation compared to peptide 16 ([2]; 5 μg/ml, repeated 3 times with different pooled blood, FIG. 1C)
1 | significant increase in the expression | GSKRRKLRVYLHCT [Peptide 16, peptide comprising the procoagulant domain of heparanase, non-modified] | significant reduction | significant reduction | significant increase in cell proliferation | significant increase in the expression | significant increase in the expression | significant increase in the expression | 63.3 | 2.8 | 50.4 | 6.4 | 5.2 | increased thrombus strength | significantly reduced the time to clot formation (R) | – | –
2 | significant increase in the expression | acetyl-GSKRRKLRVYLHCT-amid (Ac-GSKRRKLRVYLHCT-NH2) [Peptide 16AC, peptide 16 comprising a C-terminal amid group and an N-terminal acetyl group] | significant reduction | significant reduction | significant increase in cell proliferation | significant increase in the expression | significant increase in the expression | significant increase in the expression | 63.1 | 2.5 | 53.8 | 5.6 | 4.7 | increased thrombus strength | significantly reduced the time to clot formation (R) | significantly better effect in reducing the bleeding compared to peptide 16 | significant better effect to increase clot formation compared to peptide 16
